Results published in patent EP0942911B1, “BENZOPYRANOPYRROLE AND BENZOPYRANOPYRIDINE ALPHA-1 ADRENERGIC COMPOUNDS” (Abbott Laboratories, priority 1996, dated 1998).
Counter-ions that a name gives are not always drawn.

target: T1, α-1A adrenoreceptor (Rattus norvegicus, UniProt P43140); experiment: cell-based; conditions: phenylephrine-induced contraction; Schild plot; read-out: In Vitro Characterization (pA2) Rat Vas (converted)
T1 sequence (P43140 1-466): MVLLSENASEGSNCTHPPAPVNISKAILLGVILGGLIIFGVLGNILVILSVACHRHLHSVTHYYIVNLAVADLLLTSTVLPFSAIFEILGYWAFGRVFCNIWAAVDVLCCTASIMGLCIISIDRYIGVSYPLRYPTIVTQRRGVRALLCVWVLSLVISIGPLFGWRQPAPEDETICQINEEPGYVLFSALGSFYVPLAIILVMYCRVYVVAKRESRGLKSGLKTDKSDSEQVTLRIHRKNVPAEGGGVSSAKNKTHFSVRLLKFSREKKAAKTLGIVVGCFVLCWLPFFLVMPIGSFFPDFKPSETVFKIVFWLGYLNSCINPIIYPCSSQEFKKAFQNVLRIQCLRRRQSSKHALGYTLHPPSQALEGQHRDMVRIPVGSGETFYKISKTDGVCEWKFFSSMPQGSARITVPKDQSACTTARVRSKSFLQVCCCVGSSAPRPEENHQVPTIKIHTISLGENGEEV
Text: Functional assays indicative of pharmacologically defined α-1 adrenoreceptors were used to further characterize compounds. Inhibition of phenylephrine (PE)-induced contraction of canine prostate smooth muscle can be correlated with α-1A adrenoreceptor activation. […] For each of these models, agonist dose response curves were repeated against increasing concentrations of test agent to derive a Schild plot [log ([…]) against log (molarity of test agent)] to determine the pA2.

SMILES	Kb [nM]
COc1ccc2sc3c(=O)n(CCCCN4C[C@H]5COc6cccc(OC)c6[C@@H]5C4)c(=O)[nH]c3c2n1 [Example 26, 3-[4-((3aS,9bR)-trans-9-Methoxy-1,2,3,3a,4,9b-hexahydro-[1]-benzopyrano[3,4-c]pyrrol-2-yl)butyl]-8-methoxy-pyrido[2',3':4,5]thieno[3,2-d]pyrimidine-2,4(1H,3H)-dione hydrochloride]	0.0457
COc1cccc2c1[C@@H]1CN(CCCCn3c(=O)[nH]c4c(sc5c(OC)ccnc54)c3=O)C[C@@H]1CO2 [Example 18, 3-[4-((3aR,9bR)-cis-9-Methoxy-1,2,3,3a,4,9b-hexahydro[1]-benzopyrano[3,4-c]pyrrol-2-yl)butyl]-6-methoxy-pyrido[2',3':4,5]thieno[3,2-d]pyrimidine-2,4(1H,3H)-dione dihydrochloride]	0.741

target: T2, α-1d adrenoreceptor (Rattus norvegicus, UniProt P23944); experiment: biochemical; assay type: binding; conditions: [3H]-prazosin radioligand; cloned receptor in LTK cell membranes; read-out: Radioligand Binding (Ki, nM) 1d (Rat)
T2 sequence (P23944 1-561): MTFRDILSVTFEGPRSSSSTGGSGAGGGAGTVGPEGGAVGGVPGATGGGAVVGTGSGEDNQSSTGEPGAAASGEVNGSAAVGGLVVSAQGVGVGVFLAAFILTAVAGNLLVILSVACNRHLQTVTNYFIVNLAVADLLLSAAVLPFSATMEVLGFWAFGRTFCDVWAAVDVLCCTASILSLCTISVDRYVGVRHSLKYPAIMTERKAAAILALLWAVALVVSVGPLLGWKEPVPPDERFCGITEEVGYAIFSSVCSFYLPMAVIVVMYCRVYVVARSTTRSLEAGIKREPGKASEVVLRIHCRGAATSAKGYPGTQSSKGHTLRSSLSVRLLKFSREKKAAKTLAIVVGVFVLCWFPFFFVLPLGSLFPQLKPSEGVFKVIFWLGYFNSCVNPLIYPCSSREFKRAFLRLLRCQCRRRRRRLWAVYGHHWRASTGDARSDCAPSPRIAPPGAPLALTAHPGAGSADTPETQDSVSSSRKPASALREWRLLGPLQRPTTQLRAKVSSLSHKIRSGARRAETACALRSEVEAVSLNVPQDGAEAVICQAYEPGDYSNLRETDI
In short: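 Cloned α-1a, α-1b and α-1d adrenoreceptors stably expressed in mouse LTK fibroblasts; membranes prepared in 50 mM Tris-HCl, pH 7.4. Radioligand binding per Greengrass and Bremner method, scintillation counting. The α-1A subtype used rat submaxillary gland membranes.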

SMILES	Ki [nM]
COc1ccc2sc3c(=O)n(CCCCN4C[C@H]5COc6cccc(OC)c6[C@@H]5C4)c(=O)[nH]c3c2n1 [Example 26, 3-[4-((3aS,9bR)-trans-9-Methoxy-1,2,3,3a,4,9b-hexahydro-[1]-benzopyrano[3,4-c]pyrrol-2-yl)butyl]-8-methoxy-pyrido[2',3':4,5]thieno[3,2-d]pyrimidine-2,4(1H,3H)-dione hydrochloride]	0.017
COc1cccc2c1[C@@H]1CN(CCCCn3c(=O)[nH]c4c(sc5c(OC)ccnc54)c3=O)C[C@@H]1CO2 [Example 18, 3-[4-((3aR,9bR)-cis-9-Methoxy-1,2,3,3a,4,9b-hexahydro[1]-benzopyrano[3,4-c]pyrrol-2-yl)butyl]-6-methoxy-pyrido[2',3':4,5]thieno[3,2-d]pyrimidine-2,4(1H,3H)-dione dihydrochloride]	0.79
COc1cccc2c1[C@@H]1CN(CCCCn3c(=O)[nH]c4c(sc5cccnc54)c3=O)C[C@@H]1CO2 [Example 1, 3-[4-((3aR,9bR)-cis-9-Methoxy-1,2,3,3a,4,9b-hexahydro-[1]-benzopyrano[3,4-c]pyrrol-2-yl)butyl]-pyrido[2',3':4,5]thieno[3,2-d]pyrimidine-2,4(1H,3H)-dione hydrochloride]	0.223
COc1cccc2c1[C@H]1CN(CCCCn3c(=O)[nH]c4c(sc5cccnc54)c3=O)C[C@H]1CO2 [Example 2, 3-[4-((3aS,9bS)-cis-9-Methoxy-1,2,3,3a,4,9b-hexahydro-[1]-benzopyrano[3,4-c]pyrrol-2-yl)butyl]-pyrido[2',3':4,5]thieno[3,2-d]pyrimidine-2,4(1H,3H)-dione hydrochloride]	2.72
COc1cccc2c1[C@@H]1CN(CCCCn3c(=O)[nH]c4c(sc5cccnc54)c3=O)C[C@H]1CO2 [Example 3, 3-[4-((3aS,9bR)-trans-9-Methoxy-1,2,3,3a,4,9b-hexahydro-[1]-benzopyrano[3,4-c]pyrrol-2-yl)butyl]-pyrido[2',3':4,5]thieno[3,2-d]pyrimidine-2,4(1H,3H)-dione hydrochloride]	0.041
COc1cnc2sc3c(=O)n(CCCCN4CC5COc6cccc(OC)c6[C@@H]5C4)c(=O)[nH]c3c2n1.Cl (stereo in doubt) [Example 43, 3-[4-((3aS,9bR)-trans-9-Methoxy-1,2,3,3a,4,9b-hexahydro-[1]-benzopyrano[3,4-c]pyrrol-2-yl)butyl]-8-methoxy-pyrazino[2',3':4,5]thieno[3,2-d]pyrimidine-2,4(1H,3H)-dione hydrochloride]	0.063
COc1cccc2c1[C@@H]1CN(CCCCn3c(=O)[nH]c4c(sc5ccnc(Cl)c54)c3=O)C[C@@H]1CO2 [Example 48, 3-[4-((3aR,9bR)-cis-9-Methoxy-1,2,3,3a,4,9b-hexahydro-[1]-benzopyrano[3,4-c]pyrrol-2-yl)butyl]-9-chloro-pyrido[3',4';4,5]thieno[3,2-d]pyrimidine-2,4(1H,3H)-dione hydrochloride]	0.467
COc1cccc2c1[C@@H]1CCN(CCCCn3c(=O)[nH]c4c(sc5cccnc54)c3=O)C[C@H]1CO2 [Example 95, 3-[4-((4aS,10bR)-trans-10-Methoxy-1,3,4,4a,5,10b-hexahydro-2H-[1]-benzopyrano[3,4-c]pyrido-3-yl)butyl]-pyrido[2',3':4,5]thieno[3,2-d]pyrimidine-2.4(1H,3H)-dione dihydrochloride]	23
COc1cccc2c1[C@@H]1CCN(CCCCn3c(=O)[nH]c4c(sc5ncccc54)c3=O)C[C@H]1CO2 (racemic) [Example 85, 3-[4-((±)-trans-10-Methoxy-1,3,4,4a,5,10b-hexahydro-2H-[1]-benzopyrano[3,4-c]pyrido-3-yl)butyl]-pyrido[3',2':4,5]thieno[3,2-d]pyrimidine-2,4(1H,3H)-dione dihydrochloride]	0.566
COc1cc2[nH]c(=O)n(CCCCN3C[C@@H]4COc5ccccc5[C@@H]4C3)c(=O)c2cc1OC (racemic) [Example 81, 3-[4-((±1-cis-1,2,3,3a,4,9b-hexahydro-[1]-benzopyrano[3,4-c]pyrrol-2-yl)butyl]-6,7-dimethoxy-quinazoline-2,4(1H,3H)-dione hydrochloride]	0.108
COc1cccc2c1[C@@H]1CN(CCCCn3c(=O)[nH]c4c(sc5c(Cl)nccc54)c3=O)C[C@H]1CO2 [Example 54, 3-[4-((3aS,9bR)-trans-9-Methoxy-1,2,3,3a,4,9b-hexahydro-[1]-benzopyrano[3,4-c]pyrrol-2-yl)butyl]-6-chloro-pyrido[4',3':4,5]thieno[3,2-d]pyrimidine-2,4(1H,3H)-dione]	0.173
COc1cccc2c1[C@@H]1CN(CCCCn3c(=O)[nH]c4c(sc5ccnc(OC)c54)c3=O)C[C@H]1CO2 [Example 49, 3-[4-((3aS,9bR)-trans-9-Methoxy-1,2,3,3a,4,9b-hexahydro-[1]-benzopyrano[3,4-c]pyrrol-2-yl)butyl]-9-methoxy-pyrido[3',4':4,5]thieno[3,2-d]pyrimidine-2,4(1H,3H)-dione fumarate]	0.019

same assay, conditions: read-out: Radioligand Binding (Ki, nM) 1d (Rat)

SMILES	Ki [nM]
COc1ccc2c(c1)OC[C@H]1CN(CCCn3c(=O)[nH]c4c(sc5ccccc54)c3=O)C[C@@H]21.Cl (racemic) [Example 64, 3-[3-((±)-cis-7-Methoxy-1,2,3,3a,4,9b-hexahydro-[1]-benzopyrano[3,4-c]pyrrol-2-yl)propyl]-[1]benzthieno[3,2-d]pyrimidine-2,4(1H,3H)-dione hydrochloride]	10.4
COc1ccc2c(c1)OC[C@H]1CN(CCn3c(=O)[nH]c4c(sc5ccccc54)c3=O)C[C@@H]21.Cl (racemic) [Example 63, 3-[2-((±)-cis-7-Methoxy-1,2,3,3a,4,9b-hexahydro-[1]-benzopyrano[3,4-c]pyrrol-2-yl)ethyl]-[1]benzthieno[3,2-d]pyrimidine-2,4(1H,3H)-dione hydrochloride]	70.1
COc1cccc2c1OC[C@H]1CN(CCn3c(=O)[nH]c4c(sc5ccccc54)c3=O)C[C@@H]21.Cl (racemic) [Example 67, 3-[2-((±)-cis-6-Methoxy-1,2,3,3a,4,9b-hexahydro-[1]-benzopyrano[3,4-c]pyrrol-2-yl)ethyl]-[1]benzthieno[3,2-d]pyrimidine-2,4(1H,3H)-dione hydrochloride]	65
COc1cccc2c1OC[C@H]1CN(CCCn3c(=O)[nH]c4c(sc5ccccc54)c3=O)C[C@@H]21.Cl (racemic) [Example 68, 3-[3-((±)-cis-6-Methoxy-1,2,3,3a,4,9b-hexahydro-[1]-benzopyrano[3,4-c]pyrrol-2-yl)propyl]-[1]benzthieno[3,2-d]pyrimidine-2,4(1H,3H)-dione hydrochloride]	42.5
COc1cccc2c1[C@@H]1CN(CCn3c(=O)[nH]c4c(sc5ccccc54)c3=O)C[C@@H]1CO2.Cl (racemic) [Example 65, 3-[2-((±)-cis-9-Methoxy-1,2,3,3a,4,9b-hexahydro-[1]-benzopyrano[3,4-c]pyrrol-2-yl)ethyl]-[1]benzthieno[3,2-d]pyrimidine-2,4(1H,3H)-dione hydrochloride]	25
Cl.O=c1[nH]c2c(sc3ccccc32)c(=O)n1CCN1C[C@@H]2COc3ccccc3[C@@H]2C1 (racemic) [Example 69, 3-[2-((±)-cis-1,2,3,3a,4,9b-hexahydro-[1]-benzopyrano[3,4-c]pyrrol-2-yl)ethyl]-[1]benzthieno[3,2-d]pyrimidine-2,4(1H,3H)-dione hydrochloride]	1.63
COc1cccc2c1[C@@H]1CN(CCCn3c(=O)[nH]c4c(sc5ccccc54)c3=O)C[C@@H]1CO2.Cl (racemic) [Example 66, 3-[3-((±)-cis-9-Methoxy-1,2,3,3a,4,9b-hexahydro-[1]-benzopyrano[3,4-c]pyrrol-2-yl)propyl]-[1]benzthieno[3,2-d]pyrimidine-2,4(1H,3H)-dione hydrochloride]	87.7
